Measurements from paper PMC7914897, “Cytotoxic Potential of a-Azepano- and 3-Amino-3,4-SeCo-Triterpenoids” (International Journal of Molecular Sciences, 2021).

Columns and labels:
[1] = system: A498 (Renal cancer); assay: NCI-60 screen (SRB, 48 h); conditions: Homo sapiens; for GI50: A498; for IC (TGI): A498, 48 h, read-out: TGI; for CC50: A498, read-out: LC50
[2] = system: K-562 (Leukemia); assay: NCI-60 screen (SRB, 48 h); conditions: Homo sapiens; for GI50: K562; for IC (TGI): K562, 48 h, read-out: TGI; for CC50: K562, read-out: LC50
[3] = system: KM12 (Colon cancer); assay: NCI-60 screen (SRB, 48 h); conditions: Homo sapiens; for GI50: KM12; for IC (TGI): KM12, 48 h, read-out: TGI
[4] = system: LOX IMVI (Melanoma); assay: NCI-60 screen (SRB, 48 h); type: cell-based; conditions: Homo sapiens; for IC (TGI) / activity at 10 µM: 48 h; for GI50: read-out: GI50; for CC50: read-out: LC50 (the source's name); for activity at 10 µM: 1 dose 10 µM, read-out: Growth % of the Most Sensitive Cell Lines
[5] = system: RXF 393 (Renal cancer); assay: NCI-60 screen (SRB, 48 h); conditions: Homo sapiens; for GI50: RXF 393; for IC (TGI): RXF 393, 48 h, read-out: TGI; for CC50: RXF 393, read-out: LC50
[6] = system: NCI/ADR-RES (Ovarian cancer); assay: NCI-60 screen (SRB, 48 h); conditions: Homo sapiens; for IC (TGI): 48 h, read-out: TGI; for CC50: read-out: LC50
[7] = system: UO-31 (Renal cancer); assay: NCI-60 screen (SRB, 48 h); conditions: for GI50 / IC (TGI) / CC50: Homo sapiens; for GI50: UO-31; for IC (TGI): UO-31, 48 h, read-out: TGI; for CC50: UO-31, read-out: LC50
[8] = system: HCT-116 (Colon cancer); assay: NCI-60 screen (SRB, 48 h); conditions: Homo sapiens; for GI50: HCT-116; for IC (TGI): read-out: TGI
[9] = system: SR (Leukemia); assay: NCI-60 screen (SRB, 48 h); type: cell-based; conditions: for GI50 / CC50: Homo sapiens; for CC50: read-out: LC50 (the source's name)
[10] = system: DU-145 (Prostate cancer); assay: NCI-60 screen (SRB, 48 h); conditions: Homo sapiens; for GI50: DU-145; for IC (TGI): DU-145, 48 h, read-out: TGI; for CC50: DU-145, read-out: LC50
[11] = system: OVCAR-4 (Ovarian cancer); assay: NCI-60 screen (SRB, 48 h); type: cell-based; conditions: Homo sapiens; for IC (TGI): OVCAR-4, 48 h; for GI50: read-out: GI50
[12] = system: Colon Cancer subpanel; assay: NCI-60 screen, subpanel; conditions: Homo sapiens; for IC (TGI): 48 h, read-out: TGI MG_MID; for GI50: read-out: GI50 MG_MID
[13] = system: T-47D (Breast cancer); assay: NCI-60 screen (SRB, 48 h); conditions: Homo sapiens, T47D; for IC (TGI): 48 h, read-out: TGI
[14] = system: SF-295 (CNS cancer); assay: NCI-60 screen (SRB, 48 h); conditions: Homo sapiens; for GI50: SF-295; for IC (TGI): SF-295, 48 h, read-out: TGI; for CC50: SF-295, read-out: LC50
[15] = system: HL-60(TB) (Leukemia); assay: NCI-60 screen (SRB, 48 h); type: cell-based; conditions: Homo sapiens; for IC (TGI): 48 h; for CC50: read-out: LC50 (the source's name)
[16] = system: NCI-H522 (NSC lung cancer); assay: NCI-60 screen (SRB, 48 h); conditions: Homo sapiens; for GI50: NCI-H522; for IC (TGI): NCI-H522, 48 h, read-out: TGI; for CC50: NCI-H522, read-out: LC50
[17] = system: HOP-92 (NSC lung cancer); assay: NCI-60 screen (SRB, 48 h); conditions: Homo sapiens; for GI50: HOP-92; for IC (TGI): HOP-92, 48 h, read-out: TGI; for CC50: HOP-92, read-out: LC50
[18] = system: HT29 (Colon cancer); assay: NCI-60 screen (SRB, 48 h); conditions: Homo sapiens; for GI50: HT-29; for IC (TGI): HT-29, 48 h, read-out: TGI
[19] = system: BT-549 (Breast cancer); assay: NCI-60 screen (SRB, 48 h); type: cell-based; conditions: Homo sapiens; for GI50 / CC50: BT-549; for IC (TGI): BT-549, 48 h; for CC50: read-out: LC50 (the source's name)
[20] = system: IGROV1 (Ovarian cancer); assay: NCI-60 screen (SRB, 48 h); conditions: Homo sapiens; for GI50: IGROV-1; for IC (TGI): IGROV-1, 48 h, read-out: TGI
[21] = system: NSC lung cancer subpanel; assay: NCI-60 screen, subpanel; conditions: Homo sapiens; for IC (TGI): 48 h, read-out: TGI MG_MID; for GI50: read-out: GI50 MG_MID; for CC50: read-out: LC50 MG_MID
[22] = system: UACC-257 (Melanoma); assay: NCI-60 screen (SRB, 48 h); conditions: Homo sapiens; for GI50: UACC-257; for IC (TGI): UACC-257, 48 h, read-out: TGI; for CC50: UACC-257, read-out: LC50
[23] = system: HCT-15 (Colon cancer); assay: NCI-60 screen (SRB, 48 h); conditions: Homo sapiens; for GI50: HCT-15; for IC (TGI): HCT-15, 48 h, read-out: TGI

## CC1(C)NCCC[C@]2(C)[C@H]3C=CC4=C5C[C@@](C)(CO)CC[C@]5(C)CC[C@@]4(C)[C@]3(C)CC[C@@H]12 [Compound 6, azepano-glycyrrhetol-diene]
[1]
  GI50: 11.4 µM
  IC (TGI): 24.5 µM
  CC50: 52.7 µM
[2]
  GI50: 3180 nM
  IC (TGI): 10.8 µM
  CC50: 43.8 µM
[3]
  GI50: 6090 nM
  IC (TGI): 20.3 µM
[3]; KM12, read-out: LC50
  CC50: 55.1 µM
[4]
  IC (TGI): 6.76 µM
  GI50: 2490 nM
  CC50: 29 µM
[5]
  GI50: 1840 nM
  IC (TGI): 4.15 µM
  CC50: 9.35 µM
[6]
  GI50: 2020 nM
  IC (TGI): 4.52 µM
  CC50: 10.4 µM
[7]
  GI50: 3590 nM
  IC (TGI): 15.7 µM
  CC50: 42.1 µM
[7]; UO-31, 1 dose 10 µM
  Growth % of the Most Sensitive Cell Lines: −98.13%
[8]
  GI50: 2730 nM
[8]; HCT-116, 48 h
  IC (TGI): 10.6 µM
[8]; HCT-116, read-out: LC50
  CC50: 52.9 µM
[9]
  TGI: 7.17 µM
  GI50: 2420 nM
  CC50: > 100 µM
[10]
  GI50: 2250 nM
  IC (TGI): 5.02 µM
  CC50: 13.8 µM
[11]
  IC (TGI): 20.8 µM
[11]; OVCAR-4
  GI50: 5630 nM
[11]; OVCAR-4, read-out: LC50 (the source's name)
  CC50: 63.1 µM
[12]
  IC (TGI): 16.7 µM
  GI50: 5110 nM
[12]; read-out: LC50 MG_MID
  CC50: 48.2 µM
[13]
  GI50: 5380 nM
  IC (TGI): 20.9 µM
[13]; read-out: LC50
  CC50: 59.5 µM
[14]
  GI50: 2000 nM
  IC (TGI): 4.04 µM
  CC50: 8.15 µM
[15]
  GI50: 2630 nM
  IC (TGI): 7.02 µM
  CC50: 32.6 µM
[16]
  GI50: 2380 nM
  IC (TGI): 7.31 µM
  CC50: 31.7 µM
[17]
  GI50: 3100 nM
  IC (TGI): 14.6 µM
  CC50: 47 µM
[18]
  GI50: 3250 nM
  IC (TGI): 13.8 µM
[18]; HT-29, read-out: LC50
  CC50: 41.8 µM
[19]
  GI50: 3460 nM
  IC (TGI): 12.7 µM
  CC50: 39 µM
[20]
  GI50: 4080 nM
  IC (TGI): 14.8 µM
[20]; IGROV-1, read-out: LC50
  CC50: 46.6 µM
[21]
  IC (TGI): 11.2 µM
  GI50: 3.17 µM
  CC50: 39.1 µM
[22]
  GI50: 5240 nM
  IC (TGI): 17 µM
  CC50: 43.8 µM
[23]
  GI50: 4210 nM
  IC (TGI): 16.4 µM
[23]; HCT-15, read-out: LC50
  CC50: 45.4 µM

## Cc1ccc(S(=O)(=O)OC[C@]23CCC(C)(C)C[C@H]2C2=CC[C@@H]4[C@@]5(C)CCCNC(C)(C)[C@@H]5CC[C@@]4(C)[C@]2(C)CC3)cc1 [Compound 15]
[1]
  GI50: 5.99 µM
  IC (TGI): 21.4 µM
  CC50: 57.6 µM
[2]
  GI50: 1750 nM
  CC50: > 100 µM
[3]
  GI50: 1820 nM
  IC (TGI): 3.33 µM
[4]
  IC (TGI): 3 µM
  activity at 10 µM: -87.7%
  GI50: 1600 nM
[5]
  GI50: 1380 nM
  IC (TGI): 2.78 µM
  CC50: 5.59 µM
[6]
  GI50: 1890 nM
  IC (TGI): 3.93 µM
[7]
  GI50: 1290 nM
  IC (TGI): 2.68 µM
  CC50: 5.58 µM
[8]
  GI50: 1800 nM
[8]; HCT-116, 48 h, read-out: Growth % of the Most Sensitive Cell Lines
  activity at 10 µM: -83%
[9]
  GI50: 340 nM
  CC50: > 100 µM
[10]
  GI50: 1790 nM
  IC (TGI): 3.37 µM
  CC50: 6.35 µM
[11]
  IC (TGI): 3.32 µM
[11]; OVCAR-4
  GI50: 1690 nM
[12]
  IC (TGI): 3.25 µM
  GI50: 1700 nM
[13]
  GI50: 1670 nM
  IC (TGI): 3.31 µM
[14]
  GI50: 1710 nM
  IC (TGI): 3.3 µM
[15]
  GI50: 1850 nM
  IC (TGI): 4.06 µM
[16]
  GI50: 1690 nM
  IC (TGI): 3.38 µM
  CC50: 6.78 µM
[17]
  GI50: 1350 nM
  IC (TGI): 2.8 µM
[18]
  GI50: 1640 nM
  IC (TGI): 3.23 µM
[19]
  GI50: 1900 nM
  IC (TGI): 3.78 µM
[20]
  GI50: 1410 nM
  IC (TGI): 3.08 µM
[21]
  IC (TGI): 3.42 µM
  GI50: 3.14 µM
  CC50: 53.4 µM
[22]
  GI50: 1850 nM
  IC (TGI): 3.54 µM
[23]
  GI50: 1650 nM
  IC (TGI): 3.2 µM

## CC(C)=C1CCC=C2CC[C@]3(C)[C@H](CC[C@@H]4[C@@]5(C)CCCNC(C)(C)[C@@H]5CC[C@]43C)[C@H]21 [Compound 9]
[1]
  GI50: 1.87 µM
  IC (TGI): 3.6 µM
  CC50: 6.93 µM
[2]
  GI50: 1250 nM
  IC (TGI): 3.5 µM
[3]
  GI50: 1920 nM
  IC (TGI): 3.42 µM
[4]
  IC (TGI): 3.01 µM
  activity at 10 µM: -100%
  GI50: 1650 nM
  CC50: 5.49 µM
[5]
  GI50: 1610 nM
  IC (TGI): 3.1 µM
  CC50: 5.98 µM
[6]
  GI50: 1840 nM
  IC (TGI): 3.52 µM
  CC50: 6.73 µM
[7]
  GI50: 1470 nM
  IC (TGI): 2.82 µM
  CC50: 5.42 µM
[8]
  GI50: 1730 nM
[8]; HCT-116, 48 h
  IC (TGI): 3.31 µM
[9]
  TGI: 3.16 µM
  GI50: 1140 nM
[10]
  GI50: 1980 nM
  IC (TGI): 3.55 µM
  CC50: 6.38 µM
[11]
  IC (TGI): 3.6 µM
[11]; OVCAR-4
  GI50: 1990 nM
[12]
  IC (TGI): 3.03 µM
  GI50: 1550 nM
[13]
  GI50: 1630 nM
  IC (TGI): 3.46 µM
[14]
  GI50: 1870 nM
  IC (TGI): 3.42 µM
  CC50: 6.24 µM
[15]
  GI50: 1700 nM
  IC (TGI): 3.5 µM
  CC50: 7.19 µM
[16]
  GI50: 1800 nM
  IC (TGI): 3.44 µM
[17]
  GI50: 1390 nM
  IC (TGI): 2.77 µM
  CC50: 5.52 µM
[18]
  GI50: 940 nM
  IC (TGI): 2.31 µM
[19]
  GI50: 1660 nM
  IC (TGI): 3.14 µM
  CC50: 5.96 µM
[20]
  GI50: 1730 nM
  IC (TGI): 3.27 µM
[21]
  IC (TGI): 3.27 µM
  GI50: 1.68 µM
  CC50: 6.11 µM
[22]
  GI50: 1860 nM
  IC (TGI): 3.63 µM
  CC50: 7.09 µM
[23]
  GI50: 1400 nM
  IC (TGI): 2.81 µM
